Results as given in patent publication US20230372361A1, “USE OF OXYGENATED CHOLESTEROL SULFATES FOR TREATING INFLAMMATORY CONDITIONS” (Durect Corporation, priority 2020, published 2023).
Where two headings read alike, the source gives them in different places.

What was measured:
[1] = test system: Huh-7 cells; test: Whole genome bisulfite sequencing (WGBS), promoter 5mCpG demethylation; format: cell-based, human; details: 25 μM, 4 hours
Method: Huh-7 and HepG-2 cells were cultured in DMEM media supplemented with 10% heat-inactivated fetal bovine serum (FBS), high glucose (HG, 4.5 g/L) at 37° C. in a humidified atmosphere of 5% CO2.
Each sample, 2 was sent to EpigenDx, Inc. (Hopkinton, MA) for analysis of global methylation bisulfite sequencing. The same samples, 6 μg, were sent to Novogene Co., Ltd (Tianjin, China) for analysis of whole genome bisulfite sequencing (WGBS). Total RNA was isolated using the Promega SV total RNA isolation system (Madison, WI) with DNase treatment. Each sample, 2 was used for the first-strand cDNA synthesis as recommended by the manufacturer (Invitrogen, Carlsbad, CA). […] Relative messenger RNA (mRNA) expression was quantified with the comparative cycle threshold (Ct) method using the primer set shown in Table 1.1 and was expressed as 2^−ΔΔct.
Analysis of Whole Human Genome Bisulfite Sequencing (WGBS) Each sample, 5.2 μg of genomic DNA spiked with 26 ng lambda DNA, was fragmented by sonication to 200-300 bp with Covaris S220, followed by end repair and adenylation. […] These DNA fragments were treated twice with bisulfite using EZ DNA Methylation-Gold™ Kit (Zymo Research) before the resulting single-strand DNA fragments were PCR amplified using KAPA HiFi Hot Start Uracil and Ready Mix (2×). […]

[2] = test system: Huh-7 cells; test: Real-time RT-PCR of key gene expression; format: cell-based, human; details: 6.25-50 μM, 1-8 hours
Method: FIGS. 3A-3D. Expression of key genes related to signaling pathways. […] Key Genes and their targeting genes expression were determined by RT-PCR analysis. […] Each sample, 2 was sent to […], Inc. (Hopkinton, MA) for analysis of global methylation bisulfite sequencing. The same samples, 6 μg, were sent to Novogene Co., Ltd (Tianjin, China) for analysis of whole genome bisulfite sequencing (WGBS). Total RNA was isolated using the Promega SV total RNA isolation system (Madison, WI) with DNase treatment. […] Real-time RT-PCR was performed using SYBR Green as the indicator on ABI 7500 Fast Real-Time PCR System (Applied Biosystems, Foster City, CA). Amplifications of β-actin or GAPDH were used as internal controls. Relative messenger RNA (mRNA) expression was quantified with the comparative cycle threshold (Ct) method using the primer set shown in Table 1.1 and was expressed as 2^-ΔΔct.

[3] = Excretion mass balance, single intravenous dose; format: in vivo, male Sprague Dawley rats; details: iv 10 mg/kg; over 168 hours
Method: (§1) Nine male Sprague Dawley rats (Group 1) were designated for the pharmacokinetic phase, 3 male Sprague Dawley rats (Group 2) for the excretion mass balance phase, and 7 male Sprague Dawley rats (Group 3) and 9 male Long Evans rats (Group 4) for the tissue distribution phase. All animals received a single intravenous dose of [^14C]-25HC3S at 10 mg/kg and a target radioactivity of 225 μCi/kg. Blood samples were collected from all Group 1 animals at approximately 0.083, 0.25, 0.5, 1, 2, 4, 8, 12, 24, 48, and 72 hours post-dose. Urine and feces were collected from all Group 2 animals periodically through 168 hours post-dose. […] Following blood collection, animals were euthanized by CO2 inhalation and carcasses frozen in a dry ice/hexane bath for processing by quantitative whole body autoradiography. Whole blood, plasma, urine, feces, cage rinse, and cage wash were analyzed for total radioactivity by liquid scintillation counting.

[4] = Tissue distribution by quantitative whole body autoradiography, intravenous, pigmented animals; format: in vivo, male Long Evans rats; details: iv 10 mg/kg
Method: as §1

[5] = Metabolite profiling of plasma, urine, feces after intravenous dose (HPLC radiodetection, MS); format: in vivo, rats; details: iv 10 mg/kg
Method: Plasma pools were made from Group 1 rats at the 0.083, 0.25, 0.5, and 1-hour collection time points.
Urine pools were prepared for Group 2 at 0 to 6 and 6 to 12 hours post-dose. […] Four metabolites present at <10% relative observed intensity in at least 1 sample were M7 (<5% relative observed intensity), M16 (<3% relative observed intensity), M19 (<6% relative observed intensity), and M25 (<5% relative observed intensity).
Feces pools were prepared for Group 2 at 0 to 12, 12 to 24, and 24 to 48 hours post-dose.

[6] = design: species or system rats; details: rat, in vivo, po, 75 mg/kg
Method: The terminal elimination phase T1/2 was 27.3 hours.

[7] = design: species or system rats; details: Sprague Dawley, rat, in vivo, po, 75 mg/kg
[8] = rat, in vivo, po, 75 mg/kg
Method: Pancreas and liver concentrations ranged from 23,500 ng equiv./g to 28,100 ng equiv./g. Uveal tract and brain concentrations were lowest relative to the other tissues and were approximately 1000 ng equiv./g. Skin, thymus, prostate, and pituitary tissue concentrations were <3000 ng equiv./g. Remaining tissues had concentrations between 3600 ng-equiv./g and 10,700 ng equiv./g. […] As calculated using AUClast, the tissue:plasma ratios were highest for the small intestine (wall, 15.4) followed by the liver and adrenal gland at 6.96 and 6.64, respectively. High liver and small intestine concentrations are consistent with oral administration and biliary (fecal) excretion.

For C[C@H](CCCC(C)(C)O)[C@H]1CC[C@H]2[C@@H]3CC=C4C[C@@H](OS(=O)(=O)O)CC[C@]4(C)[C@H]3CC[C@]12C [25HC3S, 25-hydroxycholesterol-3-sulfate], the “hypomethylation levels across genomic functional regions versus vehicle” value [1] was “significantly higher hypomethylation levels than vehicle”, the “decrease of FAS gene expression” value [2] was roughly 90% and the “decrease of HMGR gene expression” value [2] was roughly 90%. For the same molecule, the “increase of CREB5 expression” value [2] was “up to 20 fold”, the “increase of DUSP8 expression” value [2] was 5 fold and the “increase of PGC1A expression” value [2] was 12 fold. For the same molecule, the “dose recovered in urine, feces, and cage rinse” value [3] was “approximately 100.2 % of the dose”, the “recovered radioactivity in feces” value [3] was 83.0% and the “binding to pigmented or non-pigmented skin or the uveal tract” value [4] was “no difference”. For the same molecule, the “plasma or whole blood concentrations versus Sprague Dawley rats” value ([4]; first 168 hours post-dose) was “no substantial difference”, the amount in feces ([5]; pools 0 to 48 hours post-dose) was 2 % of dose and the “share of the exposure (AUC) to 25HC3S related radioactivity in plasma” value ([5]; up to 1 hour post-dose) was “approximately 54%”. The “plasma Cmax” value [6] was 3800 ng equiv./g, the “dose recovered in urine, feces, and cage rinse” value [7] was “approximately 94.5 % of the dose” and the “tissue:plasma ratio, adrenal gland” value ([8]; male, Sprague Dawley) was 6.64. For the same molecule, the “tissue:plasma ratio, liver” value ([8]; male, Sprague Dawley) was 6.96, the “tissue:plasma ratio, small intestine (wall)” value ([8]; male, Sprague Dawley) was 15.4 and the “Cmax in small intestine (wall)” value [8] was 424,000 ng equiv./g. The “Cmax in stomach (wall)” value [8] was 204,000 ng equiv./g, the “tissue concentrations by 168 hours post-dose” value [8] was “near or below the quantitation limit in all tissues except adrenal gland and liver” and the “tissue distribution of parent and/or metabolites” value [8] was “broadly distributed and detected by quantitative whole body autoradiography in all tissues except the eye (lens)”. The “whole blood AUClast” value [8] was 127,000 h·ng equiv./g.
